Patent publication US20160168118A1, “N-(5-QUINOLIN-6-YL)PYRIDIN-3-YL) BENZSULFAMIDE DERIVATIVES, PREPARATION METHOD AND THERAPEUTIC USE THEREOF” (SECOND MILITARY MEDICAL UNIVERSITY, PLA, priority 2012, published 2016)
Converted amounts (≈) assume the structure as drawn.

How the values were obtained:
PI3Kα = PI3Kα (Homo sapiens, UniProt P42336); assay: Kinase-Glo Luminescent Kinase Assay, PI3Kα; type: biochemical
[1] = system: A549 (human lung cancer cells); assay: MTT assay, A549; type: cell-based; settings: 72 h
Experimental: (§1) 1. Sample preparation: After dissolved with DMSO (Merck), PBS (−) was added to make 1000 μg/ml solution or a uniform suspension, and then diluted with PBS (−) containing the DMSO. Doxorubicin (DOX) was used as the positive control drug.
(§2) 2. Cell Line • 1) A549 (human lung cancer cells); 2) HCT116 (human colon cancer cells); 3) HepG2 (human hepatoma cells); 4) ZR-75-30 (human breast cancer cells); 5) U87MG (human brain star glioblastoma)
(§3) DMEM+5-10% FBS+double resistant
(§4) MTT assay. 100 μl cell suspension was added at a concentration of 4˜5×10^4 cells/ml to each well of a 96-well plate, and was set at 37° C., 5% CO2 in the incubator. After 24 h, the sample solution was added, 10 μl/hole, double wells were set, 37° C., acting for 72 h at 5% CO2. […] of 5 mg/ml was added to each well, the dissolving liquid was added after acted for 4 h, 100 μl/hole, kept in the incubator, and read 570 nm OD with MK-2 automatic microplate reader after dissolution.

[2] = system: HCT116 (human colon cancer cells); assay: MTT assay, HCT116; type: cell-based; settings: HCT-116, 72 h
[3] = system: U87MG (human brain star glioblastoma); assay: MTT assay, U87MG; type: cell-based; settings: U-87 MG, 72 h
Experimental: as §1, §2, §3, §4

PI3Kα, sequence (P42336 whole entry, species assumed): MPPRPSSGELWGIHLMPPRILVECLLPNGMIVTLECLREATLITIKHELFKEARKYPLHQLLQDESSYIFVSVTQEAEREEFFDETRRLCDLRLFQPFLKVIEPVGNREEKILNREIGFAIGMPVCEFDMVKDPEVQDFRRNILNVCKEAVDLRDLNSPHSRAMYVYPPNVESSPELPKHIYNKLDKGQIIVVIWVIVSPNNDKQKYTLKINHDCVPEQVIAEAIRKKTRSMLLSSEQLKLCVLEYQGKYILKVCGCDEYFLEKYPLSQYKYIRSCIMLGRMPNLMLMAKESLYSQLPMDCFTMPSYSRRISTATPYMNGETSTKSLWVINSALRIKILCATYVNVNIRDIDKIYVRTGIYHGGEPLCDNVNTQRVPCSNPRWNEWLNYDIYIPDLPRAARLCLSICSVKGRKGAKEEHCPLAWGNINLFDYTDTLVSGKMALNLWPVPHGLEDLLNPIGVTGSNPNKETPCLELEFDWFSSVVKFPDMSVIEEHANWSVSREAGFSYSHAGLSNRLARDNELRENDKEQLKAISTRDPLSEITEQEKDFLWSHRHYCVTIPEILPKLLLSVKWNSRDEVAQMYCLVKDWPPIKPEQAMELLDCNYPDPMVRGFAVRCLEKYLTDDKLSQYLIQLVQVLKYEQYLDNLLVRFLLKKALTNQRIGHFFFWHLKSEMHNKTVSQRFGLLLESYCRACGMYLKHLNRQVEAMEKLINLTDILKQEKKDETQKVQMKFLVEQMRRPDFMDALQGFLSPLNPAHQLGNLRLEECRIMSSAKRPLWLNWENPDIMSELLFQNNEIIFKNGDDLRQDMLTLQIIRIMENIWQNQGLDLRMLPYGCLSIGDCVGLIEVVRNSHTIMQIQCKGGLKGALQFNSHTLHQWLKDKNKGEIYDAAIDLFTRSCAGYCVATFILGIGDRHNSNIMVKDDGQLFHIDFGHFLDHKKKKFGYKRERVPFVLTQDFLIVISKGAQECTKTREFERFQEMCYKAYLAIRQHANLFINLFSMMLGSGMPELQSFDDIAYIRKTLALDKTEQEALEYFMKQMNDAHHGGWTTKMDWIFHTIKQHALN
PI3Kα, sequence (P27986 whole entry partner, species assumed): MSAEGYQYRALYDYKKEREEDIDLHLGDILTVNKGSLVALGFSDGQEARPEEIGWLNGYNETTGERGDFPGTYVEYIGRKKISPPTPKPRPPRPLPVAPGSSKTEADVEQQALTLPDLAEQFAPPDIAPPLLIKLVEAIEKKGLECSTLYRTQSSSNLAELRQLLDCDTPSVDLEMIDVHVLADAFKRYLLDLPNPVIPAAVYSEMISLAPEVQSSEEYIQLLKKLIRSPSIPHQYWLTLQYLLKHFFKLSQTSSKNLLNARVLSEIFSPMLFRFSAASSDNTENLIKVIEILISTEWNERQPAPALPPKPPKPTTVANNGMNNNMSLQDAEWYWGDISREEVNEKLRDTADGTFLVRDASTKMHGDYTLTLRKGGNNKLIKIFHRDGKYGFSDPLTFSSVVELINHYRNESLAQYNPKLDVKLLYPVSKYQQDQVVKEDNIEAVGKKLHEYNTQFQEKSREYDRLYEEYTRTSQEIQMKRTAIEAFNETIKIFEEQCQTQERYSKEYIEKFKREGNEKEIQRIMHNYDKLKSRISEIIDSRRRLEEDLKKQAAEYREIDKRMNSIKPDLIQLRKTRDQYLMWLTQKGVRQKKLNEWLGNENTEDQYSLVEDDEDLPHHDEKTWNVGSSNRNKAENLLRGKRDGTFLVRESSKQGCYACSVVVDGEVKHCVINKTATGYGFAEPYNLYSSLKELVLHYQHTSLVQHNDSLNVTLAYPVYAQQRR

| SMILES | IC50 (PI3Kα) | IC50 [1] | IC50 [2] | IC50 [3] | melting point |
| --- | --- | --- | --- | --- | --- |
| COc1ncc(-c2ccc3nccc(-c4ccc(C(=O)N5CCCC5)cc4)c3c2)cc1NS(=O)(=O)c1ccc(F)cc1F [Compound 11, N-(2-methoxy-5-(4-(4-(pyrrolidinyl-1-carbonyl)phenyl)quinolin-6-yl)pyridin-3-yl)-2,4-difluorobenzenesulfonamide] | 0.7 nM | 0.048 µg/mL (≈ 0.0799 µM) | 0.221 µg/mL (≈ 0.368 µM) | 0.284 µg/mL (≈ 0.473 µM) | 115 to 117 °C |
| COc1ncc(-c2ccc3nccc(-c4ccc(CN5CCCC5)cc4)c3c2)cc1NS(=O)(=O)c1ccc(F)cc1F [Compound 12] | 1.4 nM | 0.022 µg/mL (≈ 0.0375 µM) | 0.011 µg/mL (≈ 0.0188 µM) | 0.093 µg/mL (≈ 0.159 µM) | 129 to 130 °C |
| COc1ncc(-c2ccc3nccc(-c4ccc(CN5CCOCC5)cc4)c3c2)cc1NS(=O)(=O)c1ccc(F)cc1F [Compound 13, N-(5-(4-(4-((morpholino-1-yl)methyl)phenyl)quinolin-6-yl)-2-methoxypyridine-3-yl)-2,4-difluorobenzenesulfonamide] | 1.1 nM | 0.042 µg/mL (≈ 0.0697 µM) | 0.00196 µg/mL (≈ 0.00325 µM) | 0.091 µg/mL (≈ 0.151 µM) | 97 to 99 °C |
| COc1ncc(-c2ccc3nccc(-c4ccc(CN5CCCCC5)cc4)c3c2)cc1NS(=O)(=O)c1ccc(F)cc1F [Compound 14, N-(5-(4-(4-((piperidine-1-yl)methyl)phenyl)quinolin-6-yl)-2-methoxypyridine-3-yl)-2,4-difluorobenzenesulfonamide] | 1.2 nM | 0.00934 µg/mL (≈ 0.0155 µM) | 0.0205 µg/mL (≈ 0.0341 µM) | 0.019 µg/mL (≈ 0.0316 µM) | – |
| COc1ncc(-c2ccc3nccc(-c4ccc(Cn5ccnc5)cc4)c3c2)cc1NS(=O)(=O)c1ccc(F)cc1F [Compound 15, N-(5-(4-(4-((1H-imidazole-1-yl)methyl)phenyl)quinolin-6-yl)-2-methoxypyridine-3-yl)-2,4-difluorobenzenesulfonamide] | 1.1 nM | 0.018 µg/mL (≈ 0.0308 µM) | 0.019 µg/mL (≈ 0.0326 µM) | 0.35 µg/mL (≈ 0.6 µM) | 108 to 109 °C |
| COc1ncc(-c2ccc3nccc(-c4ccc(Cn5ccnc5C)cc4)c3c2)cc1NS(=O)(=O)c1ccc(F)cc1F [Compound 16, N-(5-(4-(4-((2-methyl-1H-imidazole-1-yl)methyl)phenyl)quinolin-6-yl)-2-methoxypyridine-3-yl)-2,4-difluorobenzenesulfonamide] | 0.95 nM | 0.00608 µg/mL (≈ 0.0102 µM) | 0.00846 µg/mL (≈ 0.0142 µM) | 0.024 µg/mL (≈ 0.0402 µM) | 110 to 111 °C |
| COc1ncc(-c2ccc3nccc(-c4ccc(CN5CCN(C(C)C)CC5)cc4)c3c2)cc1NS(=O)(=O)c1ccc(F)cc1F [Compound 18, N-(5-(4-(4-((4-isopropylpiperazine-1-yl)methyl)phenyl)quinolin-6-yl)-2-methoxypyridine-3-yl)-2,4-difluorobenzenesulfonamide] | 1.7 nM | 0.00124 µg/mL (≈ 0.00193 µM) | 0.0159 µg/mL (≈ 0.0247 µM) | 0.301 µg/mL (≈ 0.468 µM) | – |
| COc1ncc(-c2ccc3nccc(-c4ccc(CN5CCN(CCO)CC5)cc4)c3c2)cc1NS(=O)(=O)c1ccc(F)cc1F [Compound 19, N-(5-(4-(4-((4-(2-hydroxyethyl)piperazine-1-yl)methyl)phenyl)quinolin-6-yl)-2-methoxypyridine-3-yl)-2,4-difluorobenzenesulfonamide] | 1.2 nM | 0.016 µg/mL (≈ 0.0248 µM) | 0.014 µg/mL (≈ 0.0217 µM) | 0.137 µg/mL (≈ 0.212 µM) | – |
| COc1ncc(-c2ccc3nccc(-c4ccc(CN5CCN(C)CC5)cc4)c3c2)cc1NS(=O)(=O)c1ccc(F)cc1F [Compound 23, N-(5-(4-(4-((4-methylpiperazine-1-yl)methyl)phenyl)quinolin-6-yl)-2-methoxypyridine-3-yl)-2,4-difluorobenzenesulfonamide] | 1.3 nM | 0.00818 µg/mL (≈ 0.0133 µM) | 0.027 µg/mL (≈ 0.0439 µM) | 0.207 µg/mL (≈ 0.336 µM) | – |
| COc1cccc2c1C(=O)c1c(O)c3c(c(O)c1C2=O)C[C@@](O)(C(=O)CO)C[C@@H]3O[C@H]1C[C@H](N)[C@H](O)[C@H](C)O1 [DOX, Doxorubicin, reference compound] | – | 0.324 µg/mL (≈ 0.596 µM) | 0.0308 µg/mL (≈ 0.0567 µM) | 0.536 µg/mL (≈ 0.986 µM) | – |
